Laboratory results from ChEMBL document CHEMBL3132854, “Synthesis and anticancer activity evaluation of resveratrolchalcone conjugates” (2014).

Legend:
Assay type in all cases: functional
HL-60(TB) = assay: Cytotoxicity against human HL-60(TB) cells by sulforhodamine B assay
HT-29 = assay: Cytotoxicity against human HT-29 cells by sulforhodamine B assay
MCF7 = assay: Cytotoxicity against human MCF7 cells by sulforhodamine B assay
SW-620 = assay: Cytotoxicity against human SW620 cells by sulforhodamine B assay
SF-268 = assay: Cytotoxicity against human SF268 cells by sulforhodamine B assay
MOLT-4 = assay: Cytotoxicity against human MOLT4 cells by sulforhodamine B assay
MDA-MB-231 = assay: Cytotoxicity against human MDA-MB-231 cells by sulforhodamine B assay
HCT-116 = assay: Cytotoxicity against human HCT116 cells by sulforhodamine B assay
SF-295 = assay: Cytotoxicity against human SF295 cells by sulforhodamine B assay
CCRF-CEM = assay: Cytotoxicity against human CCRF-CEM cells by sulforhodamine B assay
SR = assay: Cytotoxicity against human SR cells by sulforhodamine B assay
[1] = read-out: LC50 (the source's name)

COc1ccc(C(=O)/C=C/c2ccc(/C=C/c3cc(OC)c(OC)c(OC)c3)cc2)cc1 showed a GI50 (HL-60(TB)) of 4.49 µM, a TGI (HL-60(TB)) greater than 100 µM and a CC50 (HL-60(TB); [1]) greater than 100 µM. It also gave a GI50 (HT-29) of 4.17 µM, a TGI (HT-29) greater than 100 µM and a CC50 (HT-29; [1]) greater than 100 µM. For the same compound, the GI50 (MCF7) was 2.18 µM, the TGI (MCF7) was 36.6 µM and the CC50 (MCF7; [1]) was greater than 100 µM. It also gave a GI50 (SW-620) of 4.5 µM, a TGI (SW-620) greater than 100 µM and a CC50 (SW-620; [1]) greater than 100 µM. For the same compound, the GI50 (SF-268) was 6.08 µM, the TGI (SF-268) was 88.3 µM and the CC50 (SF-268; [1]) was greater than 100 µM. It also gave a GI50 (MOLT-4) of 3.49 µM, a TGI (MOLT-4) greater than 100 µM and a CC50 (MOLT-4; [1]) greater than 100 µM. The GI50 (MDA-MB-231) was 10.2 µM, the TGI (MDA-MB-231) was greater than 100 µM and the CC50 (MDA-MB-231; [1]) was greater than 100 µM. The GI50 (HCT-116) was 2.62 µM, the TGI (HCT-116) was greater than 100 µM and the CC50 (HCT-116; [1]) was greater than 100 µM. For the same compound, the GI50 (SF-295) was 9.01 µM, the TGI (SF-295) was greater than 100 µM and the CC50 (SF-295; [1]) was greater than 100 µM. The GI50 (CCRF-CEM) was 4.15 µM, the TGI (CCRF-CEM) was greater than 100 µM and the CC50 (CCRF-CEM; [1]) was greater than 100 µM. The GI50 (SR) was 1.98 µM, the TGI (SR) was greater than 100 µM and the CC50 (SR; [1]) was greater than 100 µM.
